# Assay results published in patent publication US12590099B2, “Inhibitors of histone deacetylase useful for the treatment or prevention of HIV infection” (Merck Sharp & Dohme LLC, priority 2018, dated 2026).
# Columns and labels:
# [1] = biological target: T1, Recombinant human HDAC3/SMRT heterodimer (Homo sapiens, UniProt O15379); test: Human HDAC enzyme inhibitor Fluor-de-Lys assay, HDAC3/SMRT; type: biochemical; conditions: recombinant human HDAC3/SMRT, Fluor-de-Lys assay
# T1 construct: FLAG (C); made in house
# T1 sequence (O15379 whole entry): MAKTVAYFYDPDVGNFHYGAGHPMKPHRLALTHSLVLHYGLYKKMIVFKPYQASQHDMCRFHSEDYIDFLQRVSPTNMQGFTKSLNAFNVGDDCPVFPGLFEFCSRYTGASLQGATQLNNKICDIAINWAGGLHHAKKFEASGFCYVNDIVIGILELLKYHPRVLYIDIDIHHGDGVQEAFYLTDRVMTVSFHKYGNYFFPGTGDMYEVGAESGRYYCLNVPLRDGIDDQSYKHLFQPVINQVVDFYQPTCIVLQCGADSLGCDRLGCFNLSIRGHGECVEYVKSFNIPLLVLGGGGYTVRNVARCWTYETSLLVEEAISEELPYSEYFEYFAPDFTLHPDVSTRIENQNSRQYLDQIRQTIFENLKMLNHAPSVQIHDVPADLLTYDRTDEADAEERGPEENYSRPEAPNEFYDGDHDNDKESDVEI
# T1 sequence (Q9Y618 1-899 partner limits assumed): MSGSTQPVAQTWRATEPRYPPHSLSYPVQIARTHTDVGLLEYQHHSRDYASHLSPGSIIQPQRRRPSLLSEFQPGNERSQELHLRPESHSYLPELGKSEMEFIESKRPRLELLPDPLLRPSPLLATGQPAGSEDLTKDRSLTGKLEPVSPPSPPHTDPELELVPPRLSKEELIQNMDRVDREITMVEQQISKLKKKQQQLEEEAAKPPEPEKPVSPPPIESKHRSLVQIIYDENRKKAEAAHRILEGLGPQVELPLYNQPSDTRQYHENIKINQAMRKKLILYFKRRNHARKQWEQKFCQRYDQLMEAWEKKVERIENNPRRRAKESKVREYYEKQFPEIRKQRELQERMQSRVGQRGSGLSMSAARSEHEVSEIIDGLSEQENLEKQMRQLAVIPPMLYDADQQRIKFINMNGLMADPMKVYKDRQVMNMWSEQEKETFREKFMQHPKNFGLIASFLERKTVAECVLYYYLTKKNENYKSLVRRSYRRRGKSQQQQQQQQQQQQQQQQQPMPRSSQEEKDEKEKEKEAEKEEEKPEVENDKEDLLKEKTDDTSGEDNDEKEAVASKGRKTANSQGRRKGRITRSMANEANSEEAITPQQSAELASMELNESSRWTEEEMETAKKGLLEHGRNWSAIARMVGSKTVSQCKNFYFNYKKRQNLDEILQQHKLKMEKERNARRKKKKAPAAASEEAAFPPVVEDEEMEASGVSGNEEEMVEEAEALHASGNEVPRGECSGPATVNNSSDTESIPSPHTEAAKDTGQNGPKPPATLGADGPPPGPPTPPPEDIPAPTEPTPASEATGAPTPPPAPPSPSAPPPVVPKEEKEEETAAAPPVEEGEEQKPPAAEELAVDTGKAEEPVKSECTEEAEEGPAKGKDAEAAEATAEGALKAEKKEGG
# HDAC6 = biological target: T2, HDAC6 (Homo sapiens, UniProt Q9UBN7); test: Human HDAC enzyme inhibitor Fluor-de-Lys assay, HDAC6; type: biochemical; conditions: HDAC6, Fluor-de-Lys assay
# T2 sequence (Q9UBN7 1-1215): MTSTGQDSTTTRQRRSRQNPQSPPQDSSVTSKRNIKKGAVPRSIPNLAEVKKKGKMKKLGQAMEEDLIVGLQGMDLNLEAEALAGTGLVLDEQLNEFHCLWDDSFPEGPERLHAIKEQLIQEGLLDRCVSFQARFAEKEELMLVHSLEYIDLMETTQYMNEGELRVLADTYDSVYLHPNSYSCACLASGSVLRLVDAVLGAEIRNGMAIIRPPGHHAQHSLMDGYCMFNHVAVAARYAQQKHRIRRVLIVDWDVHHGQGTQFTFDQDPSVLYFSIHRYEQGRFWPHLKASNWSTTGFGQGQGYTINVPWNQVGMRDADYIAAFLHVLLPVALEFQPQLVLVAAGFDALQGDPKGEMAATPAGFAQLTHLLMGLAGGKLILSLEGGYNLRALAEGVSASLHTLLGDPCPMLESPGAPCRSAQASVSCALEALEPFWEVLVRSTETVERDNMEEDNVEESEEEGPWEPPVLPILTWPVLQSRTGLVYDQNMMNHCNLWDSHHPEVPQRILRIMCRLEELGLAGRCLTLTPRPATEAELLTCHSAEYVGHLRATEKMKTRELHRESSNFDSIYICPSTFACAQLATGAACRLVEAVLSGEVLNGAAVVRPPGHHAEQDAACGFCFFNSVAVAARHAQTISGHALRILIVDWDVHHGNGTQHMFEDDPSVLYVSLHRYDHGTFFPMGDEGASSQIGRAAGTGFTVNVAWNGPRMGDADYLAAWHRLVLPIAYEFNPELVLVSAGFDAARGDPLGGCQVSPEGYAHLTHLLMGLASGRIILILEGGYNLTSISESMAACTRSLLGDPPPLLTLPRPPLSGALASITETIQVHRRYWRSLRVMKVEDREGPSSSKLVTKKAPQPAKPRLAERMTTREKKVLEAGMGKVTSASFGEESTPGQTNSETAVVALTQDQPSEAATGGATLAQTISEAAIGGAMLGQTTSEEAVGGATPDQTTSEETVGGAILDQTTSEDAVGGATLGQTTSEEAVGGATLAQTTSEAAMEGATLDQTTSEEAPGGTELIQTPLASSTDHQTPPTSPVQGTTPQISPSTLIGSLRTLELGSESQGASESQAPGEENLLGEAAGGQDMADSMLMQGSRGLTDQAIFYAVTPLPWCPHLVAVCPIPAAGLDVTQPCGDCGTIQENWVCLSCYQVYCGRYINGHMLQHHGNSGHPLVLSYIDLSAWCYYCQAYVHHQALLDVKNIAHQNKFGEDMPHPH
Compound,IC50 [1] [nM],IC50 (HDAC6) [µM]
CCC(=O)CCCCC[C@H](NC(=O)C1=NOC2(CCN(CC3CC3)CC2)C1)c1ncc(-c2cc3ccc(=O)n(C)c3cc2OC)o1 [Compound 236],1.07,> 0.9
"CCC(=O)CCCCC[C@H](NC(=O)C1=NOC2(CCN(C)CC2)C1)c1ncc(-c2ccc(-c3cnccn3)cc2OC)o1 [Compound 237, N-{(1S)-1-[5-(2-methoxy-4-pyrazin-2-ylphenyl)-1,3-oxazol-2-yl]-7-oxononyl}-8-methyl-1-oxa-2,8-diazaspiro[4.5]dec-2-ene-3-carboxamide]",6.06,> 0.9
CCC(=O)CCCCC[C@H](NC(=O)[C@H]1CC12CCN(CC)CC2)c1ncc(-c2ccc3nn(C4CC4)cc3c2)[nH]1 [Compound 238],0.27,7.78
CCCC(=O)CCCCC[C@H](NC(=O)[C@H]1CC12CCN(C)CC2)c1ncc(-c2ccc(F)cc2)[nH]1 [Compound 239],15.3,> 45
CCC(=O)CCCCC[C@H](NC(=O)[C@H]1CC12CCN(C)CC2)c1[nH]c(-c2ccc(F)cc2)nc1Cl [Compound 240],2.95,38.4
CCC(=O)CCCCC[C@H](NC(=O)C1CC12CCN(CC)CC2)c1nc(-c2ccc(F)cc2)[nH]c1-c1cnc(OC)nc1 (some centres unmarked) [Compound 247],35.9,> 45
CCC(=O)CCCCC[C@H](NC(=O)C1CC12CCN(CC)CC2)c1nc(-c2ccc(F)cc2)[nH]c1-c1cn[nH]c1 (some centres unmarked) [Compound 249],20.1,19.3
CCC(=O)CCCCC[C@H](NC(=O)C1CC12CCN(CC)CC2)c1nc(-c2ccc(F)cc2)[nH]c1-c1ccn(C)c1 (some centres unmarked) [Compound 251],1.82,41.7
CCC(=O)CCCCC[C@H](NC(=O)C1CC12CCN(CC)CC2)c1nc(-c2ccc(F)cc2)[nH]c1-c1cccs1 (some centres unmarked) [Compound 252],66.1,33.9
CCC(=O)CCCCCC(NC(=O)C1CC12CCN(CC)CC2)c1nc(-c2ccc(F)cc2)[nH]c1-c1ccnn1C (centres unmarked) [Compound 253],16.7,> 45
CCCn1cc(-c2[nH]c(-c3ccc(F)cc3)nc2C(CCCCCC(=O)CC)NC(=O)C2CC23CCN(CC)CC3)cn1 (centres unmarked) [Compound 254],29.6,> 45
CCC(=O)CCCCC[C@H](NC(=O)[C@H]1CC12CCN(C)CC2)c1ncc(-c2cnc(OC)nc2)[nH]1 [Compound 255],81.9,12.1
CCC(=O)CCCCC[C@H](NC(=O)[C@H]1CC12CCN(C)CC2)c1ncc(-c2cnc3c(c2)ncn3C)[nH]1 [Compound 256],57.9,3.93
CCC(=O)CCCCC[C@H](NC(=O)[C@H]1CC12CCN(C)CC2)c1ncc(-c2ccc3c(c2)c2ccccc2n3C)[nH]1 [Compound 265],3.86,0.63
CCC(=O)CCCCC[C@H](NC(=O)C1=NOC2(CCN(CC)CC2)C1)c1ncc(-c2cc3ccc(C)nc3cc2F)o1 [Compound 269],8.3,> 0.9
CCC(=O)CCCCC[C@H](NC(=O)C1CCC2(CC1)CN(C(C)C)C2)c1ncc(-c2cc3ccccc3nc2OC)[nH]1 [Compound 272],< 1.5,0.449
CCC(=O)CCCCC[C@H](NC(=O)CC1CC2(C1)CN(C(C)C)C2)c1ncc(-c2cc3ccccc3nc2OC)[nH]1 [Compound 273],< 1.5,0.4
CCC(=O)CCCCC[C@H](NC(=O)C1(N)CC2(CN(C)C2)C1)c1ncc(-c2cc3ccccc3nc2OC)[nH]1 [Compound 276],1.57,1.28
CCC(=O)CCCCC[C@H](NC(=O)[C@H]1CC12CCN(C)CC2)c1ncc(-c2ccc(F)cc2)[nH]1 [Compound 280],10.6,11.1

Compound,IC50 [1] [nM],IC50 (HDAC6) [µM]
CCC(=O)CCCCC[C@H](NC(=O)[C@H]1CC12CCN(C)CC2)c1ncc(-c2ccc(C(F)(F)F)cc2)[nH]1 [Compound 284],6.09,13.4
CCC(=O)CCCCC[C@H](NC(=O)[C@H]1CC12CCN(C)CC2)c1ncc(-c2ccc(F)cc2F)[nH]1 [Compound 289],21.7,10.4
CCC(=O)CCCCC[C@H](NC(=O)[C@H]1CC12CCN(C)CC2)c1ncc(-c2ccccc2F)[nH]1 [Compound 290],4.08,5.99
CCC(=O)CCCCC[C@H](NC(=O)CC1CC2(CNC2)C1)c1ncc(-c2ccccc2)[nH]1 [Compound 297],9.69,8.17
CCC(=O)CCCCC[C@@H](NC(=O)C1CCC2(CC1)CNC2)c1ncc(-c2ccccc2)[nH]1 [Compound 298],10.4,5.07
CCC(=O)CCCCC[C@H](NC(=O)C1CCC2(CC1)CNC2)c1nnc(-c2cc3ccccc3nc2OC)o1 [Compound 299],6.56,2.36
"CCC(=O)CCCCC[C@H](NC(=O)CC1CC2(C1)CN(C(C)=O)C2)c1ncc(-c2ccccc2)[nH]1 [Compound 300, (S)-2-(2-acetyl-2-azaspiro[3.3]heptan-6-yl)-N-(7-oxo-1-(5-phenyl-1H-imidazol-2-yl)nonyl)acetamide]",38.7,23.2
CCC(=O)CCCCC[C@H](NC(=O)CC1CC2(CNC2)C1)c1nnc(-c2cc3ccccc3nc2OC)o1 [Compound 301],15.8,3.48
CCC(=O)CCCCC[C@H](NC(=O)C1CC12CCNCC2)c1nnc(-c2cc3ccccc3nc2OC)o1 (some centres unmarked) [Compound 303],10.5,0.982
CCC(=O)CCCCC[C@H](NC(=O)CC1CC2(C1)CN(C)C2)c1ncc(-c2ccccc2)[nH]1 [Compound 307],16.9,12.1
CCC(=O)CCCCC[C@H](NC(=O)CC1CC2(C1)CN(C)C2)c1nnc(-c2cc3ccccc3nc2OC)o1 [Compound 308],27.4,1.28
CCC(=O)CCCCC[C@@H](NC(=O)C1CCC2(CC1)CN(C)C2)c1ncc(-c2ccccc2)[nH]1 [Compound 310],10.4,6.05
CCC(=O)CCCCC[C@H](NC(=O)C1NC(=O)CC12CN(C)C2)c1ncc(-c2cc3ccccc3nc2OC)[nH]1 (some centres unmarked) [Compound 317],0.84,0.186
CCC(=O)CCCCC[C@H](NC(=O)CC1CC2(C1)CN(C)C2)c1ncc(-c2cc3ccccc3nc2O)[nH]1 [Compound 326],1.58,> 1.5
CCC(=O)CCCCC[C@H](NC(=O)[C@H]1CC12CCN(CC)CC2)c1ncc(-c2cnc3cc(C(F)(F)F)ccc3c2)[nH]1 [Compound 341],0.43,8.97
CCC(=O)CCCCC[C@H](NC(=O)[C@H]1CC12CCN(C)CC2)c1ncc(-c2ccc3ccc(C)nc3c2F)[nH]1 [Compound 354],2.18,0.354
CCC(=O)CCCCCC(NC(=O)C1CCC2(CC1)OC(=O)c1ccncc12)c1nnc(-c2cc3ccccc3nc2OC)o1 (centres unmarked) [Compound 363],33.5,2.04
CCC(=O)CCCCCC(NC(=O)C1CCC2(CC1)OC(=O)c1cnccc12)c1nnc(-c2cc3ccccc3nc2OC)o1 (centres unmarked) [Compound 364],21.8,1.99
